The subject of one series is intestinal organoids. Description: Intestinal organoids treated with CPT-11 with or without morphine. The settings on record: CPT-11 in the presence or absence of morphine.
The test system of series [1] is MC38 colon adenocarcinoma cells. As to conditions: mouse, in vivo.
Series [2] has the same test system. Description: MC38 subcutaneous tumor model, anti-tumor efficacy of CPT-11. As to conditions: MC38 s.c. tumors; compared with saline controls.
Series [3] in a line: Analgesic efficacy of morphine with CPT-11. It counts as in vivo. The settings on record: CPT-11 co-administration.
The test system of series [4] is C57BL/6 mice. Description: CPT-11-induced GI toxicity in mice. The settings on record: for CPT-11-induced tissue damage in the ileum (histological score): co-administered with CPT-11 75 mg/kg, compared with CPT-11 alone.
For series [5], the system named is C57BL/6 mice. The series is described as follows: Intestinal transit time with 70-kDa FITC-dextran. It counts as in vivo. The settings on record: compared to saline-treated mice.
The next series deals with carboxylesterase (CES). The settings on record: ref Quinney et al., 2005; cited from earlier work.

The structures appear in SMILES notation. “Also recorded” adds a separate entry of the source. Structures can show the parent of a compound that is named as a salt.

`CCc1c2c(nc3ccc(OC(=O)N4CCC(N5CCCCC5)CC4)cc13)-c1cc3c(c(=O)n1C2)COC(=O)[C@]3(O)CC` [CPT-11, Irinotecan hydrochloride]: in the series on intestinal organoids, the “growth of intestinal organoids” value is reported as “inhibited the growth of crypt stem cells”. Further, the “body weight loss in tumor-bearing mice” value in series [1] is listed as “induced weight loss”. For the same molecule, the “reduction of tumor sizes” value in series [2] is given as 41.6%. Moreover, the “analgesic efficacy of morphine” value in series [3] is “didn’t affect the analgesic efficacy of morphine”.
As to `CCOc1ccc(NC(=S)N(CCO)Cc2cc3cc(C)cc(C)c3[nH]c2=O)cc1` [Inh-1, 1-((6,8-Dimethyl-2-oxo-1,2-dihydroquinolin-3-yl)methyl)-3-(4-ethoxyphenyl)-1-(2-hydroxyethyl)thiourea], in the series on C57BL/6 mice [4] (Inh-1 in morphine + CPT-11-treated mice), the “intestinal epithelial damage (ileal histology)” value is “rescued the intestinal epithelial damage observed with morphine and CPT-11”.
With `Clc1cccc(Cl)c1N=C1NCCN1` [clonidine, Clonidine hydrochloride], the gut transit time result in the series with C57BL/6 mice [5] was “significantly prolonged gut transit time”.
`CN(C)C(=O)C(CCN1CCC(O)(c2ccc(Cl)cc2)CC1)(c1ccccc1)c1ccccc1` [loperamide, Loperamide]: in the series on C57BL/6 mice [4], the “CPT-11-induced tissue damage in the ileum (histological score)” value is “did not significantly exacerbate small intestinal tissue damage”. The weight loss entry with C57BL/6 mice [4] (oral loperamide + CPT-11 vs CPT-11) is listed as “did not significantly exacerbate”. Further, the carboxylesterase inhibition entry with carboxylesterase (CES) is listed as “inhibitor of carboxylesterase (CES)”.
On to `CN1CC[C@]23c4c5ccc(O)c4O[C@H]2[C@@H](O)C=C[C@H]3[C@H]1C5` [morphine, Morphine sulfate], for which the “growth of intestinal organoids” value in the series with intestinal organoids is listed as “did not show any direct effects on CPT-11-treated organoids”. Moreover, in the series on C57BL/6 mice [5], the gut transit time entry was “significantly prolonged gut transit time”. Moreover, the “CPT-11-induced tissue damage in the large intestine” value in the series on C57BL/6 mice [4] (co-administered with CPT-11) is on record as “showed no effects on CPT-11-induced tissue damage”. The “CPT-11-induced tissue damage in the ileum (histological score)” value in the series on C57BL/6 mice [4] was “potentiated CPT-11-induced tissue damage in the ileum; also recorded: significantly potentiated CPT-11-induced tissue damage in the small intestines”.

The values are drawn from paper PMC10089971 (British journal of pharmacology, 2023).
